Experimental data as given in patent US20240158394A1, “NEK7 INHIBITORS” (Halia Therapeutics, Inc., priority 2022, published 2024).

Key:
IL-1β release = assay: IL-1β Release Assay; format: cell-based; conditions: Homo sapiens; PMA-treated THP-1 cells, 250 ng/mL LPS then 20 μM nigericin; cleaved IL-1β in media
Method: Approximately 1.5 million THP-1 cells were plated in each well of a 6-well TC plate and incubated with 40 nM PMA in RPMI (10% FBS, 1% Penstrep) for 24 hours. The media was then removed, and cells were rested in RPMI (10% FBS, 1% Penstrep) for 24 hours after which time the media was removed and cells were pre-treated for 2 hours with various concentrations of compounds of interest (typically serial 3-fold dilution in RPMI+5% FBS, concentrations ranging from 1 μM to 0.5 nM) in RPMI (5% FBS). The media was again removed, and cells were incubated with 250 ng/mL LPS and compounds of interest (concentrations as above) in RMPI (5% FBS) for 2 hours. The media was removed for a last time and cells were incubated with 20 μM nigericin and compounds of interest (concentrations as above) in Opti-MEM for 30 minutes. Cell media was then collected and the amount of cleaved IL-1β was determined using a JESS instrument (Protein Simple) and standard protocols. Cleaved Il-1β antibody was obtained from Cell Signaling (catalogue #83186S) and was used at 1:20 dilution in antibody diluent 2. Protein Simple 1× anti-Rabbit HRP secondary antibody was used along with Protein Simple luminol and peroxide for chemiluminescent detection. Primary antibody incubation time was increased from 30 minutes to 60 minutes.

[1] = molecular target: full-length recombinant human NEK7 (Homo sapiens (Human), UniProt Q8TDX7); assay: NEK7 Enzymatic Assay; format: biochemical; conditions: casein substrate, [33P]-ATP, 2 hours at room temperature
Method in brief: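 GST-tagged full-length human NEK7 (Sf9-expressed) with 1 mg/mL casein in HEPES pH 7.5/MgCl2 buffer, 1% DMSO; compounds 10 μM–0.5 nM preincubated 20 min at RT. Reaction started with [^33P]-ATP, 2 h at RT, P81 filter radioactivity read; IC50 from % activity remaining versus vehicle.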

Sequence of full-length recombinant human NEK7 (Q8TDX7 whole entry): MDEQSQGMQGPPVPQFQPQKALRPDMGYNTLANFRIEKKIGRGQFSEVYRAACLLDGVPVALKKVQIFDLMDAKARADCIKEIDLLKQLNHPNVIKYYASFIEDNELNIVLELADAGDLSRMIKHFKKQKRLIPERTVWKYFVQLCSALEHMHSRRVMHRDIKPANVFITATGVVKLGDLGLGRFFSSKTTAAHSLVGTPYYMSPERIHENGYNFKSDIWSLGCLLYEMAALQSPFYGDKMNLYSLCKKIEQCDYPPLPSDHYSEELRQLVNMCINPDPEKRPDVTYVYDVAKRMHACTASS

SMILES | IC50 (IL-1β release) [nM] | IC50 [1] [nM]
CN1CCC(Oc2ccc(NC(=O)Nc3ccc(-c4cn(C5CC5)c5ncnc(N)c45)c4nonc34)cc2C(F)(F)F)CC1 [Example I-79, 1-(7-(4-amino-7-cyclopropyl-7H-pyrrolo[2,3-d]pyrimidin-5-yl)benzo[c][1,2,5]oxadiazol-4-yl)-3-(4-((1-methylpiperidin-4-yl)oxy)-3-(trifluoromethyl)-phenyl)urea] | < 100 | < 200
CN1CCN(Cc2ccc(NC(=O)Nc3ccc(-c4nn(C5CC5)c5ncnc(N)c45)n4ccnc34)cc2C(F)(F)F)CC1 [Example I-98, 1-(5-(4-amino-1-cyclopropyl-1H-pyrazolo[3,4-d]pyrimidin-3-yl)imidazo[1,2-a]pyridin-8-yl)-3-(4-((4-methylpiperazin-1-yl)methyl)-3-(trifluorometh-yl)phenyl)urea] | < 100 | < 200
CN1CCN(Cc2ccc(NC(=O)Nc3ncc(-c4cn(C5CC5)c5ncnc(N)c45)n4ccnc34)cc2C(F)(F)F)CC1 [Example I-51, 1-(5-(4-amino-7-cyclopropyl-7H-pyrrolo[2,3-d]pyrimidin-5-yl)imidazo[1,2-a]pyrazin-8-yl)-3-(4-((4-methylpiperazin-1-yl)methyl)-3-(trifluorometh-yl)phenyl)urea] | > 1000 | > 2000
Nc1ncnc2c1c(-c1ccc(NC(=O)Nc3cc(C4(C(F)(F)F)CC4)on3)c3cnccc13)cn2C1CC1 [Example I-8, 1-(5-(4-amino-7-cyclopropyl-7H-pyrrolo[2,3-d]pyrimidin-5-yl)isoquinolin-8-yl)-3-(5-(1-(trifluoromethyl)cyclopropyl)-isoxazol-3-yl)urea] | 100 to 250 | < 200
CN1CCN(Cc2ccc(NC(=O)Nc3ccc(-c4cn(C5CC5)c5ncnc(N)c45)c4ccncc34)cc2C(F)(F)F)CC1 [Example I-9, 1-(5-(4-amino-7-cyclopropyl-7H-pyrrolo[2,3-d]pyrimidin-5-yl)isoquinolin-8-yl)-3-(4-((4-methylpiperazin-1-yl)-methyl)-3-(trifluoromethyl)-phenyl)urea] | < 100 | < 200
Nc1ncnc2c1c(-c1ccc(NC(=O)Nc3cc(C4(C(F)(F)F)CC4)on3)c3oncc13)cn2C1CC1 [Example I-68, 1-(4-(4-amino-7-cyclopropyl-7H-pyrrolo[2,3-d]pyrimidin-5-yl)benzo[d]isoxazol-7-yl)-3-(5-(1-(trifluoromethyl)cyclo-propyl)isoxazol-3-yl)urea] | 100 to 250 | < 200
Nc1ncnc2c1c(-c1ccc(NC(=O)Nc3cc(C4(C(F)(F)F)CC4)on3)c3nccn13)cn2C1CC1 [Example I-32, 1-(5-(4-amino-7-cyclopropyl-7H-pyrrolo[2,3-d]pyrimidin-5-yl)imidazo[1,2-a]pyridin-8-yl)-3-(5-(1-(trifluoromethyl)-cyclopropyl)isoxazol-3-yl)-urea] | > 1000 | < 200
CC(C)(C)c1cc(NC(=O)Nc2ccc(-c3cn(C4CC4)c4ncnc(N)c34)c3ccoc23)n(-c2ccccc2)n1 [Example I-62, 1-(4-(4-amino-7-cyclopropyl-7H-pyrrolo[2,3-d]pyrimidin-5-yl)benzofuran-7-yl)-3-(3-(tert-butyl)-1-phenyl-1H-pyrazol-5-yl)urea] | < 100 | 500 to 2000
Nc1ncnc2c1c(-c1ccc(NC(=O)Nc3cc(C4(C(F)(F)F)CC4)on3)c3nonc13)cn2C1CC1 [Example I-77, 1-(7-(4-amino-7-cyclopropyl-7H-pyrrolo[2,3-d]pyrimidin-5-yl)benzo[c][1,2,5]oxadiazol-4-yl)-3-(5-(1-(trifluoromethyl)-cyclopropyl)isoxazol-3-yl)urea] | < 100 | < 200
CN1CCN(Cc2ccc(NC(=O)Nc3ccc(-c4cn(C5CC5)c5ncnc(N)c45)n4cc(C(F)(F)F)nc34)cc2C(F)(F)F)CC1 [Example I-47, 1-(5-(4-amino-7-cyclopropyl-7H-pyrrolo[2,3-d]pyrimidin-5-yl)-2-(trifluoromethyl)-imidazo[1,2-a]pyridin-8-yl)-3-(4-((4-methylpiperazin-1-yl)-methyl)-3-(trifluoromethyl)-phenyl)urea] | < 100 | > 2000
Nc1ncnc2c1c(-c1ccc(NC(=O)Nc3cc(C4(C(F)(F)F)CC4)on3)c3occc13)cn2C1CC1 [Example I-65, 1-(4-(4-amino-7-cyclopropyl-7H-pyrrolo[2,3-d]pyrimidin-5-yl)benzofuran-7-yl)-3-(5-(1-(trifluoromethyl)cyclopropyl)-isoxazol-3-yl)urea] | > 1000 | 500 to 2000
CC(C)(C)c1cc(NC(=O)Nc2ccc(-c3cn(C4CC4)c4ncnc(N)c34)c3nonc23)on1 [Example I-74, 1-(7-(4-amino-7-cyclopropyl-7H-pyrrolo[2,3-d]pyrimidin-5-yl)benzo[c][1,2,5]oxadiazol-4-yl)-3-(3-(tert-butyl)isoxazol-5-yl)urea] | < 100 | < 200
CN1CCN(Cc2ccc(NC(=O)Nc3ccc(-c4cn(C5CC5)c5ncnc(N)c45)c4c3OCC4)cc2C(F)(F)F)CC1 [Example I-53, 1-(4-(4-amino-7-cyclopropyl-7H-pyrrolo[2,3-d]pyrimidin-5-yl)-2,3-dihydrobenzofuran-7-yl)-3-(4-((4-methylpiperazin-1-yl)methyl)-3-(trifluorometh-yl)phenyl)urea] | < 100 | < 200
CN1CCN(Cc2ccc(NC(=O)Nc3ccc(-c4cn(C5CC5)c5ncnc(N)c45)c4ccoc34)cc2C(F)(F)F)CC1 [Example I-66, 1-(4-(4-amino-7-cyclopropyl-7H-pyrrolo[2,3-d]pyrimidin-5-yl)benzofuran-7-yl)-3-(4-((4-methylpiperazin-1-yl)-methyl)-3-(trifluoromethyl)-phenyl)urea] | < 100 | 200 to 500
Nc1ncnc2c1c(-c1ccc(NC(=O)Nc3cc(C4(C(F)(F)F)CC4)on3)c3ncccc13)cn2C1CC1 [Example I-4, 1-(5-(4-amino-7-cyclopropyl-7H-pyrrolo[2,3-d]pyrimidin-5-yl)quinolin-8-yl)-3-(5-(1-(trifluoromethyl)cyclopropyl)-isoxazol-3-yl)urea] | > 1000 | > 2000
Nc1ncnc2c1c(-c1ccc(NC(=O)Nc3cc(C4(C(F)(F)F)CC4)on3)c3c1CCO3)cn2C1CC1 [Example I-52, 1-(4-(4-amino-7-cyclopropyl-7H-pyrrolo[2,3-d]pyrimidin-5-yl)-2,3-dihydrobenzofuran-7-yl)-3-(5-(1-(trifluorometh-yl)cyclopropyl)isoxazol-3-yl)urea] | 250 to 1000 | 200 to 500
CN1CCN(Cc2ccc(NC(=O)Nc3ccc(-c4cn(C5CC5)c5ncnc(N)c45)c4cnoc34)cc2C(F)(F)F)CC1 [Example I-69, 1-(4-(4-amino-7-cyclopropyl-7H-pyrrolo[2,3-d]pyrimidin-5-yl)benzo[d]isoxazol-7-yl)-3-(4-((4-methylpiperazin-1-yl)methyl)-3-(trifluorometh-yl)phenyl)urea] | > 1000 | < 200
CN1CCN(Cc2ccc(NC(=O)Nc3ccc(-c4cn(C5CC5)c5ncnc(N)c45)c4ncoc34)cc2C(F)(F)F)CC1 [Example I-72, 1-(4-(4-amino-7-cyclopropyl-7H-pyrrolo[2,3-d]pyrimidin-5-yl)benzo[d]oxazol-7-yl)-3-(4-((4-methylpiperazin-1-yl)-methyl)-3-(trifluoromethyl)-phenyl)urea] | > 1000 | 500 to 2000
CN1CCN(Cc2ccc(NC(=O)Nc3ccc(-c4cn(C5CC5)c5ncnc(N)c45)n4ccnc34)cc2C(F)(F)F)CC1 [Example I-34, 1-(5-(4-amino-7-cyclopropyl-7H-pyrrolo[2,3-d]pyrimidin-5-yl)imidazo[1,2-a]pyridin-8-yl)-3-(4-((4-methylpiperazin-1-yl)methyl)-3-(trifluorometh-yl)phenyl)urea] | < 100 | < 200
CC1Cc2c(-c3cn(C4CC4)c4ncnc(N)c34)ccc(NC(=O)Nc3ccc(CN4CCN(C)CC4)c(C(F)(F)F)c3)c2O1 (centres unmarked) [Example I-57, 1-(4-(4-amino-7-cyclopropyl-7H-pyrrolo[2,3-d]pyrimidin-5-yl)-2-methyl-2,3-dihydro-benzofuran-7-yl)-3-(4-((4-methylpiperazin-1-yl)methyl)-3-(trifluoromethyl)phenyl)urea] |  | 500 to 2000
Nc1ncnc2c1c(-c1ccc(NC(=O)Nc3cc(C4(C(F)(F)F)CC4)no3)c3occc13)cn2C1CC1 [Example I-64, 1-(4-(4-amino-7-cyclopropyl-7H-pyrrolo[2,3-d]pyrimidin-5-yl)benzofuran-7-yl)-3-(3-(1-(trifluoromethyl)cyclo-propyl)isoxazol-5-yl)urea] |  | > 2000
CC(C)(F)c1cc(NC(=O)Nc2ccc(-c3cn(C4CC4)c4ncnc(N)c34)n3ccnc23)on1 [Example I-20, 1-(5-(4-amino-7-cyclopropyl-7H-pyrrolo[2,3-d]pyrimidin-5-yl)imidazo[1,2-a]pyridin-8-yl)-3-(3-(2-fluoropropan-2-yl)isoxazol-5-yl)urea] |  | < 200
